Source: PubChem BioAssay (NCI)
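All cell lines were grown in 96-well plates and treated with compound for 48 hours. The concentration for 50% growth inhibition is given as GI50. Definition used: TGI = concentration required for complete inhibition of growth.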

How the values were obtained:
Test in all cases: inhibition of tumour cell growth, NCI panel, 48 h
786-0 renal = system: 786-0 renal
A498 renal = system: A498 renal
A549 NSCLC = system: A549 NSCLC
ACHN renal = system: ACHN renal
CAKI-1 renal = system: CAKI-1 renal
CCRF-CEM leukemia = system: CCRF-CEM leukemia
COLO 205 colon = system: COLO 205 colon
DU-145 prostate = system: DU-145 prostate
EKVX NSCLC = system: EKVX NSCLC
HCC-2998 colon = system: HCC-2998 colon
HCT-116 colon = system: HCT-116 colon
HCT-15 colon = system: HCT-15 colon
HL-60(TB) leukemia = system: HL-60(TB) leukemia
HOP-62 NSCLC = system: HOP-62 NSCLC
HOP-92 NSCLC = system: HOP-92 NSCLC
HS 578T breast = system: HS 578T breast
HT29 colon = system: HT29 colon
IGROV1 ovarian = system: IGROV1 ovarian
K-562 leukemia = system: K-562 leukemia
KM12 colon = system: KM12 colon
LOX IMVI melanoma = system: LOX IMVI melanoma
M14 melanoma = system: M14 melanoma
MALME-3M melanoma = system: MALME-3M melanoma
MCF7 breast = system: MCF7 breast
MDA-MB-231 breast = system: MDA-MB-231 breast
MDA-MB-435 = system: MDA-MB-435
MDA-N = system: MDA-N
NCI-H226 lung = system: NCI-H226 lung
NCI-H23 lung = system: NCI-H23 lung
NCI-H460 lung = system: NCI-H460 lung
NCI-H522 lung = system: NCI-H522 lung
NCI/ADR-RES ovarian = system: NCI/ADR-RES ovarian
OVCAR-3 ovarian = system: OVCAR-3 ovarian
OVCAR-4 ovarian = system: OVCAR-4 ovarian
OVCAR-5 ovarian = system: OVCAR-5 ovarian
OVCAR-8 ovarian = system: OVCAR-8 ovarian
PC-3 prostate = system: PC-3 prostate
RPMI-8226 leukemia = system: RPMI-8226 leukemia
RXF 393 renal = system: RXF 393 renal
SF-268 CNS = system: SF-268 CNS
SF-295 CNS = system: SF-295 CNS
SF-539 CNS = system: SF-539 CNS
SK-MEL-2 melanoma = system: SK-MEL-2 melanoma
SK-MEL-28 melanoma = system: SK-MEL-28 melanoma
SK-MEL-5 melanoma = system: SK-MEL-5 melanoma
SK-OV-3 ovarian = system: SK-OV-3 ovarian
SN12C renal = system: SN12C renal
SNB-19 CNS = system: SNB-19 CNS
SNB-75 CNS = system: SNB-75 CNS
SR leukemia = system: SR leukemia
SW-620 colon = system: SW-620 colon
T-47D breast = system: T-47D breast
TK-10 renal = system: TK-10 renal
U251 CNS = system: U251 CNS
UACC-257 melanoma = system: UACC-257 melanoma
UACC-62 melanoma = system: UACC-62 melanoma
BT-549 breast = system: BT-549 breast
MOLT-4 leukemia = system: MOLT-4 leukemia
UO-31 renal = system: UO-31 renal

## CC1(C)N=C(C(N)=O)c2ncn(Cc3ccccc3)c2N1
786-0 renal
  TGI: > 100000 nM
A498 renal
  TGI: > 100000 nM
A549 NSCLC
  TGI: > 100000 nM
ACHN renal
  TGI: > 100000 nM
CAKI-1 renal
  TGI: > 100000 nM
CCRF-CEM leukemia
  TGI: > 100000 nM
COLO 205 colon
  TGI: > 100000 nM
DU-145 prostate
  TGI: > 100000 nM
EKVX NSCLC
  TGI: > 100000 nM
HCC-2998 colon
  TGI: > 100000 nM
HCT-116 colon
  TGI: > 100000 nM
HCT-15 colon
  TGI: > 100000 nM
HL-60(TB) leukemia
  TGI: > 100000 nM
HOP-62 NSCLC
  TGI: > 100000 nM
HOP-92 NSCLC
  TGI: > 100000 nM
HS 578T breast
  TGI: > 100000 nM
HT29 colon
  TGI: > 100000 nM
IGROV1 ovarian
  TGI: > 100000 nM
K-562 leukemia
  TGI: > 100000 nM
KM12 colon
  TGI: > 100000 nM
LOX IMVI melanoma
  TGI: > 100000 nM
M14 melanoma
  TGI: > 100000 nM
MALME-3M melanoma
  TGI: > 100000 nM
MCF7 breast
  TGI: > 100000 nM
MDA-MB-231 breast
  TGI: > 100000 nM
MDA-MB-435
  TGI: > 100000 nM
MDA-N
  TGI: > 100000 nM
NCI-H226 lung
  TGI: > 100000 nM
NCI-H23 lung
  TGI: > 100000 nM
NCI-H460 lung
  TGI: > 100000 nM
NCI-H522 lung
  TGI: > 100000 nM
NCI/ADR-RES ovarian
  TGI: > 100000 nM
OVCAR-3 ovarian
  TGI: > 100000 nM
OVCAR-4 ovarian
  TGI: > 100000 nM
OVCAR-5 ovarian
  TGI: > 100000 nM
OVCAR-8 ovarian
  TGI: > 100000 nM
PC-3 prostate
  TGI: > 100000 nM
RPMI-8226 leukemia
  TGI: > 100000 nM
RXF 393 renal
  TGI: > 100000 nM
SF-268 CNS
  TGI: > 100000 nM
SF-295 CNS
  TGI: > 100000 nM
SF-539 CNS
  TGI: > 100000 nM
SK-MEL-2 melanoma
  TGI: > 100000 nM
SK-MEL-28 melanoma
  TGI: > 100000 nM
SK-MEL-5 melanoma
  TGI: > 100000 nM
SK-OV-3 ovarian
  TGI: > 100000 nM
SN12C renal
  TGI: > 100000 nM
SNB-19 CNS
  TGI: > 100000 nM
SNB-75 CNS
  TGI: > 100000 nM
SR leukemia
  TGI: > 100000 nM
SW-620 colon
  TGI: > 100000 nM
T-47D breast
  TGI: > 100000 nM
TK-10 renal
  TGI: > 100000 nM
U251 CNS
  TGI: > 100000 nM
UACC-257 melanoma
  TGI: > 100000 nM
UACC-62 melanoma
  TGI: > 100000 nM

## COc1cccc2nc(Nc3cccc(NC(=O)c4ccc(N5CCN(C)CC5)c(C(F)(F)F)c4)c3)ccc12
786-0 renal
  GI50: 923 nM
  TGI: 1780 nM
A498 renal
  GI50: 1800 nM
  TGI: 6460 nM
A549 NSCLC
  GI50: 1430 nM
  TGI: 5030 nM
ACHN renal
  GI50: 1530 nM
  TGI: 4570 nM
BT-549 breast
  GI50: 2790 nM
  TGI: 9390 nM
CAKI-1 renal
  GI50: 1120 nM
  TGI: 3460 nM
CCRF-CEM leukemia
  GI50: 1400 nM
  TGI: 50000 nM
COLO 205 colon
  GI50: 909 nM
  TGI: 1830 nM
DU-145 prostate
  GI50: 1810 nM
  TGI: 6380 nM
EKVX NSCLC
  GI50: 1830 nM
  TGI: 6920 nM
HCC-2998 colon
  GI50: 950 nM
  TGI: 1780 nM
HCT-116 colon
  GI50: 869 nM
  TGI: 1890 nM
HCT-15 colon
  GI50: 937 nM
  TGI: 2030 nM
HL-60(TB) leukemia
  GI50: 1070 nM
  TGI: 2350 nM
HOP-62 NSCLC
  GI50: 856 nM
  TGI: 1740 nM
HOP-92 NSCLC
  GI50: 854 nM
  TGI: 4030 nM
HS 578T breast
  GI50: 1070 nM
  TGI: 2930 nM
HT29 colon
  GI50: 712 nM
  TGI: 1610 nM
IGROV1 ovarian
  GI50: 1250 nM
  TGI: 4240 nM
K-562 leukemia
  GI50: 1100 nM
  TGI: 3680 nM
KM12 colon
  GI50: 1090 nM
  TGI: 2560 nM
LOX IMVI melanoma
  GI50: 874 nM
  TGI: 1570 nM
M14 melanoma
  GI50: 899 nM
  TGI: 1950 nM
MALME-3M melanoma
  GI50: 816 nM
  TGI: 1620 nM
MCF7 breast
  GI50: 851 nM
  TGI: 1900 nM
MDA-MB-231 breast
  GI50: 1550 nM
  TGI: 5880 nM
MDA-MB-435
  GI50: 878 nM
  TGI: 1730 nM
MOLT-4 leukemia
  GI50: 876 nM
  TGI: 2270 nM
NCI-H226 lung
  GI50: 2260 nM
  TGI: 8610 nM
NCI-H23 lung
  GI50: 2930 nM
  TGI: 10600 nM
NCI-H460 lung
  GI50: 964 nM
  TGI: 1980 nM
NCI-H522 lung
  GI50: 1040 nM
  TGI: 2000 nM
NCI/ADR-RES ovarian
  GI50: 1500 nM
  TGI: 4950 nM
OVCAR-3 ovarian
  GI50: 1210 nM
  TGI: 3070 nM
OVCAR-4 ovarian
  GI50: 1430 nM
  TGI: 6670 nM
OVCAR-5 ovarian
  GI50: 1530 nM
  TGI: 4990 nM
OVCAR-8 ovarian
  GI50: 1690 nM
  TGI: 5930 nM
PC-3 prostate
  GI50: 1260 nM
  TGI: 4510 nM
RPMI-8226 leukemia
  GI50: 1650 nM
  TGI: 6440 nM
RXF 393 renal
  GI50: 802 nM
  TGI: 2960 nM
SF-268 CNS
  GI50: 1500 nM
  TGI: 7300 nM
SF-295 CNS
  GI50: 967 nM
  TGI: 1920 nM
SF-539 CNS
  GI50: 895 nM
  TGI: 1660 nM
SK-MEL-2 melanoma
  GI50: 1360 nM
  TGI: 3650 nM
SK-MEL-28 melanoma
  GI50: 896 nM
  TGI: 1640 nM
SK-MEL-5 melanoma
  GI50: 1520 nM
  TGI: 5030 nM
SK-OV-3 ovarian
  GI50: 1730 nM
  TGI: 6110 nM
SN12C renal
  GI50: 1700 nM
  TGI: 7470 nM
SNB-19 CNS
  GI50: 1110 nM
  TGI: 2290 nM
SNB-75 CNS
  GI50: 695 nM
  TGI: 1680 nM
SR leukemia
  GI50: 1130 nM
  TGI: 3450 nM
SW-620 colon
  GI50: 968 nM
  TGI: 2080 nM
T-47D breast
  GI50: 1000 nM
  TGI: 3370 nM
TK-10 renal
  GI50: 2010 nM
  TGI: 6620 nM
U251 CNS
  GI50: 885 nM
  TGI: 1680 nM
UACC-257 melanoma
  GI50: 1360 nM
  TGI: 3510 nM
UACC-62 melanoma
  GI50: 1060 nM
  TGI: 2280 nM
UO-31 renal
  GI50: 734 nM
  TGI: 1490 nM
